Article PMC5987406, “Antioxidant, anticholinesterase and antifatigue effects of Trichilia catigua (catuaba)” (BMC Complementary and Alternative Medicine, 2018)

Columns and labels:
[1] = DPPH assay (radical scavenging); conditions: 95% confidence interval in parenthesis; linear regression, mean of 3–4 assays
Description: The test was based on the protocol of Duarte-Almeida et al. [25], with some modifications. An ethanolic solution of 2,2-diphenyl-1-picryl hydrazyl (DPPH) (Sigma, St. Louis, MO, USA) was prepared in order to produce an absorbance between 0.8 and 0.99 at 517 nm. One hundred microliters of each extract diluted in ethanol (Synth, Diadema, Brazil) at initial concentrations of 0.004, 0.01, 0.04, 0.1, 0.4 and 1.0 mg/mL were pipetted in a cuvette and after the addition of 900 μL of DPPH the cuvette was placed in a spectrophotometer (PG Instruments LTD, Leicestershire, United Kingdom) and read during 2 min at 517 nm. Ethanol (vehicle) was used as control and rutin (Acros Organics, New Jersey, USA) as positive control. The percentage of DPPH scavenger (S) was calculated by the formula: SDPPH = [(Ac - As)/Ac] × 100, where Ac = absorbance for the control and As = absorbance for the sample.
The statistical analysis was carried out using the Statistica® and Graph Pad Prism® software. The EC50 for DPPH and IC50 for acetylcholinesterase were calculated by linear regression using the mean of scavenge or inhibition for each concentration of the tested drugs. […] We adopted a p value of 0.05 as statistically significant.

[2] = test system: mice; test: Classical fear conditioning, scopolamine-induced amnesia; assay type: in vivo; conditions: scopolamine 2 mg/kg i.p., not statistically significant
Description: Male albino Swiss mice (30-50 g) and male Wistar rats (300-450 g), 3–4 months old, from our vivarium (Department of Psychobiology, UNIFESP) were housed in rooms with 12 h light-dark circle, controlled temperature (21 ± 2 °C), with filtered tap water and food (Nuvilab, Brazil) ad libitum, except during the experiments. The animals were kept in polypropylene cages (4–5 animals each) with pine shavings as bedding material. […] The animals were euthanized in CO2 chamber or by decapitation (in the case of stress by immobilization test). The protocols followed the International Guiding Principles for Biomedical Research Involving Animals and were approved by UNIFESP ethics committee (Comissão de Ética no Uso de Animais, from Universidade Federal de São Paulo, São Paulo, Brazil) - protocol #0752/07.
On the training day, the animals (except the negative control group) received scopolamine (2 mg/kg, i.p. - Sigma, St. Louis, MO, USA) in 0.9% saline 30 min after the extract treatment and 30 min later were placed individually in the context cage dotted with some visual cues. After 2 min of habituation, three electrical shocks (0.3 mA, 1 s duration and interval of 10s) were delivered to the paws of the animal (adapted from Soeiro et al.). […]

Compound	DPPH scavenging EC50 [1]	Reduction of freezing time compared with control mice that did not receive scopolamine [2] [%]
C[C@@H]1O[C@@H](OC[C@H]2O[C@@H](Oc3c(-c4ccc(O)c(O)c4)oc4cc(O)cc(O)c4c3=O)[C@H](O)[C@@H](O)[C@@H]2O)[C@H](O)[C@H](O)[C@H]1O [Rutin, rutin]	44 (9–216) μg/mL	
CN1[C@@H]2C[C@@H](OC(=O)[C@H](CO)c3ccccc3)C[C@H]1[C@@H]1O[C@@H]12 [scopolamine]		40.9
